Data reported in patent US20040029787A1, “Use of substances with oxytocin activity against climacteric disorders” (priority 2000, published 2004).
Several values for one entry are separate records, joined by “and”; a condition that tells them apart may be missing. Identical values can stand only once.

Legend:
ovariectomised rats [1] = test: Hot flush model: tail skin temperature after naloxone withdrawal in morphine-addicted ovariectomised rats; type: in vivo, rat; settings: vehicle rats 5-6° C. elevation
Method: (§1) Virgin adult cycling Sprague-Dawley rats weighing 300-350 g (Example 4) and 190-210 g (Example 5) and with regular 4-day oestrous cycles were used (Möllegaard, Denmark). The rats were housed 4 to each cage with free access to pelleted food and tap water at 22° C. and with a 12 h light/12 h dark cycle for at least 1 week before and throughout the experimental period.
In this study, ovariectomised rats (300-350 g) were treated with oxytocin for 8 days subcutaneously. Rats were addicted to morphine by implanting a morphine pellet (75 mg each) subcutaneously on days 3 and 5 of treatment. On the last day of treatment, an infrared thermistor was placed above the tail of each animal and morphine addiction was withdrawn by naloxone injection (1.0 mg/kg, subcutaneously). Temperature measurements were taken for 1 h under ketamine (80 mg/kg. intramuscularly) anaesthesia.

ovariectomised rats [2] = test: Subcutaneous oxytocin combined with hormone treatment in ovariectomised rats, plasma corticosterone and GH; type: in vivo, rat; settings: oxytocin 1 mg/kg s.c. five days, FIG. 2
From the text: FIG. 2 is a bar graph showing the plasma concentrations of corticosterone and growth hormone (GH) in ovariectomised rats subjected to subcutaneous treatment. Group A refers to rats treated with oestrogen, progesterone, and oxytocin. Group B refers to rats treated with oestragen and progesterone. Group C refers to rats treated with oxytocin. Group D refers to rats treated with saline.
(§2) Female sexually mature Sprague-Dawley rats weighing 250-300 g were used (B & K Universal Sollentuna, Sweden). The rats were housed 5 to each cage with free access to food and tap water at 20±2° C. and with a 12 h light/12 h dark cycle for at least 3 weeks before and throughout the experimental period.
In another experimental animal study, the effect of oxytocin (1 mg/kg given subcutaneously during five days) combined with hormone treatment was investigated. All treatment groups A-D each contained eight ovariectomised rats. […] Analogously to the insulin levels, the corticosterone and GH levels were normalised (but increased) by oxytocin treatment.

ovariectomised rats [3] = test: Subcutaneous oxytocin administration to ovariectomised rats, endocrine study; type: in vivo, rat; settings: 1 mg/kg subcutaneously during five days
Method: as §2
Ovariectomy means removal of an ovary or ovaries and can eg be effected according to Merchentaler, I., Funkhouser, J. M., Carver, J. N, Lundeen, S. G., Ghosh, K, Winneker, R. C. The effect of estrogens and antiestrogens in a rat model for hot flush. Maturitas, Nov 16, 1998; 30(3): 307-316.
In an experimental animal study, eight ovariectomised rats were treated with oxytocin. The ovaries were removed in order to create a menopause-like situation. After a mouth, an endocrine study was made. The “menopausal” rats get a changed hormone balance. Their insulin levels and, to a certain extent their blood sugar levels rise, possibly in consequence of increased insulin resistance. Their cortisol and growth hormone levels decrease, which expresses an inability to mobilise calories for activity. An oxytocin treatment during five days (1 mg/kg given subcutaneously during five days) restored the hormone balance.

ovariectomized rats = test: Bone loss in ovariectomized rats, densitometric and morphometric studies; type: in vivo, rat
Method: Four lots of 120-day-old female Wistar rats (mean±SD initial weight 273±28 g) were used. The rats were randomized into groups based on their body weight. […] Sample size was calculated in a pilot study after determining the variability of densitometric measurements.
All rats were fed standard chow feed containing 7.1 g/kg of calcium and 5 g/kg of phosphorus; the energy content of the feed was 3100 kcal/kg. A control group of 15 rats were not manipulated but fed the stud diet (control group, mean initial weight 269±31 g). A experimental group of 15 rats was ovariectomized at 120 days of life and given oxytocin for 10 days 1.0 mg/kg sc. (OVX+Oxy group, mean initial weight 277±32 g). A group of 15 rats underwent ovariectomy (OVX group, mean initial weight 282±27 g). […] The ovariectomy was performed as in previous studies [Rico H, Amo C, Revilla M, Arribas I, Gonzalez-Riola J, Villa L F, Rodriguez-Puyol M Etidronate versus Clodronate in the prevention of postovariectomy bone loss. An experimental study in rats. Clin Exp Rheumatol 1994, 12:301-304]. The manipulated rats were controlled to observe the development of intestinal function, alterations, and infection or dehiscence of surgical sutures. All rats received water ad libitum. The rats were kept for 30 days in the animal laboratory of department of Physiology and Pharmacology, Karolinska Institutet Living conditions (12 hours of light and 12 hours of darkness; mean room temperature 22° C.), habitat, and diet met current guidelines of the European Union. Weight was measured with a precision biomedical balance.
Densitometric and Morphometric Studies. After 30 days, all rats were anesthetized and killed by exsanguination from the abdominal aorta after being anesthetized with 4 mg/100 g body weight of sodium pentothal. The femur and 5th lumbar vertebra of rat were dissected and placed in an 85° C. water bath to remove soft tissue. Femoral length and vertebral height were measured with a caliper and bones were weighed on a precision balance. The BMC and BMD of the whole right femur and 5th lumbar vertebra were measured using a desitometer equipped with a special program for studying small […] and samples. The instrument was calibrated daily. Because of the influence of weight on bone mass in rate [Rico H, Amo C, Revilla M, Arribas I, Gonzalez-Riola J, Villa L F, Rodriguez-Puyol M Etidronate versus Clodronate in the prevention of postovariectomy bone loss. An experimental study in rats. Clin Exp Rheumatol 1994, 12:301-304] and human beings [Rico H, Revilla M, Villa L F, Alvarez de Buergo M A, Ruiz-Contreras D Determinants of total and regional bone mineral content and density in postpubertal normal women. Metabolism 1994, 43 :263-266], BMC was corrected for final body weight (BMC/BW). The BMC and BMD of the femurs and 5th lumbar vertebra were measured separately.

[4] = test system: women two years into menopause with vaginal rash, pain and dryness; test: Double blind intravaginal oxytocin gel versus cellulose gel in 20 menopausal women, biopsy and interview; type: in vivo, human
Method: Besides, a further experiment was conducted, wherein 20 women, all of them at two years into menopause and otherwise healthy. None of them underwent hormone replacement therapy. All patients had objective and subjective symptoms of vaginal rash, pain and a feeling of dryness.
Ten patents were treated with oxytocin 1 mg/ml mixed with 1 ml close gel intravaginally during five consecutive days, whereas the remaining ten patients were treated with 1 ml cellulose gel intravaginally dog five consecutive days as control. Before treatment with either control or oxytocin gel we took a biopsy, this procedure was repeated after 5 days of treatment. The protocol was a double blind protocol, ie the microscopic evaluations were performed by the same experienced pathologist before the code was broken.

[5] = test system: postmenopausal women with atrophic, ulcerous vaginal mucous membranes; test: Intravaginal oxytocin administration to postmenopausal women (seven women, inspection by gynaecologist); type: in vivo, human; settings: oxytocin 1 mg/ml mixed with 1 ml cellulose gel intravaginally
Method: Seven women at an age of 60-70 years, otherwise completely healthy, with expressed postmenopausal disorders in the form of white, thin, atrophic, easy-bleeding and ulcerous vaginal mucous membranes were included in the study. They were treated with oxytocin 1 mg/ml mixed with 1 ml cellulose gel intravaginally driving five consecutive days,
The treatment was effected by a gynaecologist who inspected the mucous membranes. After a treatment lasting 2-3 days, the mucous membranes had improved in that they looked like those in a female woman.
At the same time, it was observed that the mood of the women was improved. They seemed obviously happy and reported that they felt happy, and many of them had resumed their sex lives.

ovariectomised rats [6] = test: Tail-flick test in ovariectomised rats after intravaginal oxytocin; type: in vivo, rat; settings: tails in water at 51° C.; intravaginal oxytocin versus saline; FIG. 4
Method: One way of applying somatic discomfort to an organism is to subject a part of it to a high temperature. This relief effect of oxytocin was investigated in a tail-flick test. In this test the tails of ovariectomised rats were immersed in water at 51° C. With reference to FIG. 4, the latency time from the immersion of the tails to the withdrawal thereof were measured for rats treated with oxytocin (▴) and rats treated with saline (□). For each group of rats, the test sessions were accomplished three times with a period of 15 minutes between the sessions. […] A longer latency time means that the rat could stand the somatic discomfort better such as increased temperature ta it otherwise would do.

ovariectomised rats [7] = test: Weight change in ovariectomised rats given subcutaneous oxytocin; type: in vivo, rat
Method: as §2
A rat having its ovaries removed also gains weight compared to untreated rats.

[8] = test system: rats with experimentally-induced polycystic ovaries; test: Oestradiol valerate induced polycystic ovaries (PCO) in rats, NGF and ovarian morphology; type: in vivo, rat; settings: oxytocin 1.0 mg/kg subcutaneously every third day
Method: as §1
Statistical analyses were carried out using the SPSS 8.0 software. NGF concentrations in the pituitary gland, the hypothalamus, the hippocampus, the ovary, and the adrenal glands were analysed and the groups compared using analyses of variance (ANOVA) followed by multiple comparison procedures Bonferroni test).
All rats (totally 59) received a single intramuscular injection either of oestradiol valerate (EV), oil, or 0.15 M NaCl (Kabi Pharmacia AB, Sweden) and were anaesthetised with enflurane. Twenty rats re injected with 4 mg EV in 0.2 ml oil/rat (ten rats in the control group and ten in the oxytocin treated). They were decapitated after 30 days to elucidate when the ovaries display characteristic features of well-defined PCO (Brawer et al., 1978, Supra; Brawer et al., 1986, supra). The oxytocin treated group received subcutaneous oxytocin 1.0 mg/kg subcutaneously every third day during the experimental period.

ovariectomised rats [9] = test: Forward locomotion of ovariectomised rats after intravaginal oxytocin gel; type: in vivo, rat; set-up: forward locomotion, Minutes 1-15 / forward locomotion, Minutes 16-30 / forward locomotion, Minutes 1-30 / forward locomotion, Minutes 1-15, AVERAGE / forward locomotion, Minutes 16-30, AVERAGE / forward locomotion, Minutes 1-30, AVERAGE: unit not given here
Method: as §2
The ovaries of seven female rats were removed. After 2 weeks, the rats were treated with oxytocin gel given intravaginally (conc. 1 mg/ml). […] Most probably, there is an activation of nerves present in the vaginal mucous membrane.
The total experimental time is 30 minutes per rat, and the values in table I show the forward locomotion for the first 15 minutes, for the whole experimental time, and for the last 15 minutes.

[10] = ovariectomized rats, oxytocin 1.0 mg/kg sc for 10 days, after 30 days, mean ± SD
[11] = individual rats R1-R7, oxytocin gel 1 mg/ml intravaginally

C#C[C@]1(O)CC[C@H]2[C@@H]3CCc4cc(O)ccc4[C@H]3CC[C@@]21C [17-alpha-ethinyloestradiol]
tail skin temperature increase (flashes) after naloxone (ovariectomised rats [1]; 0.1 m g subcutaneous): significantly inhibited

oxytocin
plasma GH levels (ovariectomised rats [2]; compared with saline treated rats, eight rats per group): significantly higher | plasma corticosterone levels (ovariectomised rats [2]; compared with rats treated with oestrogen+progesterone): significantly higher | blood sugar levels (ovariectomised rats [3]; compared to NaCl controls): normalised | plasma insulin levels (ovariectomised rats [3]; compared to control rats treated with NaCl, FIG. 1): normalised ie lowered | tail skin temperature increase (flashes) after naloxone (ovariectomised rats [1]; repeated oxytocin 1.0 mg/kg subcutaneous for 8 days): significantly inhibited | F-BMC (femur bone mineral content) (ovariectomized rats; [10]): 335 ± 37 mg | F-BMC/BW (femur BMC corrected for final body weight) (ovariectomized rats; [10]): 1.12 ± 0.09 mg/g | F-BMD (femur bone mineral density) (ovariectomized rats; [10]): 131 ± 18 mg/cm^2 | Femur (femoral length) (ovariectomized rats; [10]): 35.5 ± 1.3 mm | Femur (weight) (ovariectomized rats; [10]): 712 ± 42 mg | V-BMC (5th lumbar vertebral bone mineral content) (ovariectomized rats; [10]): 110 ± 16 mg | V-BMD (5th lumbar vertebral bone mineral density) (ovariectomized rats; [10]): 107 ± 13 mg/cm^2 | Vertebra (5th lumbar vertebra weight) (ovariectomized rats; [10]): 273 ± 32 mg | Vertebra (5th lumbar vertebral height) (ovariectomized rats; [10]): 6.9 ± 0.6 mm | Final weight (ovariectomized rats; ovariectomized rats, oxytocin 1.0 mg/kg sc for 10 days, after 30 days, mean ± SD, 15 rats): 334 ± 31 g | bone loss in ovariectomized rats (ovariectomized rats; oxytocin treatment for 10 days): suppresses bone loss | inflammation in histology (biopsy) ([4]; after 5 days of treatment): no or a lesser degree of inflammation | histology of vaginal epithelium (biopsy) ([4]; after 5 days of treatment, except cases with normal epithelium before treatment): normalization of the epithelium | subjective relief in interviews ([4]; oxytocin 1 mg/ml in 1 ml gel intravaginally, five days, ten patients, versus cellulose gel control): expressed relief | mood of the women [5]: improved | treatment time until mucous membranes had improved [5]: 2 to 3 days | ulcers of vaginal mucous membranes ([5]; after 2-3 days): all ulcers had disappeared | state of vaginal mucous membranes on inspection ([5]; five consecutive days, seven women 60-70 years): improved | tail-flick latency time (immersion to withdrawal) (ovariectomised rats [6]): increases the latency time | food intake (ovariectomised rats [7]; oxytocin for 10 days): do not eat less | weight gain after ovariectomy (ovariectomised rats [7]; oxytocin for 10 days subcutaneously, versus saline controls, FIG. 3): do not gain weight as much | concentrations of NGF in the ovaries ([8]; 30 days, compared to non-oxy-treated PCO rats): significantly lower | ovarian morphology (PCO changes) ([8]; versus EV control group): significantly less changes | forward locomotion, Minutes 1-30, AVERAGE (ovariectomised rats [9]; average of 7 rats (SD 1.36), control average 24.71, T-test 0.03*): 26.91 | forward locomotion, Minutes 1-15, AVERAGE (ovariectomised rats [9]; average of 7 rats (SD 1.81), control average 27.10, T-test 0.04*): 30.20 | forward locomotion, Minutes 16-30, AVERAGE (ovariectomised rats [9]; average of 7 rats (SD 2.86), control average 18.33, T-test 0,44 ns): 20.13 | forward locomotion, Minutes 1-30 (ovariectomised rats [9]; [11]): 27.7 (2×) and 25.3 and 25.1 and 26.3 and 28.7 and 27.6 | forward locomotion, Minutes 16-30 (ovariectomised rats [9]; [11]): 20.3 and 19.8 and 17.7 and 23.2 and 21.6 and 15.3 and 23 | forward locomotion, Minutes 1-15 (ovariectomised rats [9]; individual rats R1-R7, oxytocin gel 1 mg/ml intravaginally, two days after completed treatment): 30.7 and 27.8 and 28.8 and 28.6 and 32.2 and 32.3 and 31 | behaviour changes (motor activity such as forward locomotion) (ovariectomised rats [9]; two days after completed intravaginal treatment, compared to gel without oxytocin): increased motor activity
